Measured values from patent publication US11946041B2, “Modification of polypeptides” (BicycleRD Limited, priority 2017, dated 2024).
Each block holds one sequence with its values, some of them ahead of it.

Assays:
CCR4 [1] = target: T1, CCR4 (Homo sapiens, UniProt P51679); test: PathHunter eXpress CCR4 CHO-K1 β-Arrestin GPCR Assay, agonist format; format: cell-based
T1 construct: host or cells: CHO-K1
T1 sequence (P51679 1-360): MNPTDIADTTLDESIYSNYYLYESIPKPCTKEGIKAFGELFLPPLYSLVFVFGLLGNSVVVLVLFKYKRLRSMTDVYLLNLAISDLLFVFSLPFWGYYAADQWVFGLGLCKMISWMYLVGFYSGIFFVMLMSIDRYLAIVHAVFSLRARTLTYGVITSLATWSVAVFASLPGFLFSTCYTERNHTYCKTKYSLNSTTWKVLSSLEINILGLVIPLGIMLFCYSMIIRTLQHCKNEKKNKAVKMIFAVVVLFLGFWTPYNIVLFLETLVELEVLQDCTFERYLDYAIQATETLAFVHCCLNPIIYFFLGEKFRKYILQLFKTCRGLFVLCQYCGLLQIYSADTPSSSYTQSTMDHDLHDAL
Method: (§1) The aim of the present experiment was to analyze if if these peptides are functional using a Discoverx Assay, the Beta-Arrestin recruitment assay, to identify agonism or antagonism in the selected peptides.
(§2) Standard protocols used: • PathHunter® eXpress CCR4 CHO-K1 β-Arrestin GPCR Assay. 100 dp (1×96-well)
(§3) The experiment was carried using the manufacturer instructions.
The concentration was increased to test for response at high concentration.

CCR4 [2] = target: T1, CCR4; test: PathHunter eXpress CCR4 CHO-K1 β-Arrestin GPCR Assay, antagonist format with CCL22; format: cell-based
Method: as §1, §2, §3
We therefore used the assay in an antagonist format, using 10 nM CCL22.
We repeated this experiment lowering the concentration of CCL22 from 10 nM to 1 nM to show a full inhibition curve.

Raw Data (CCR4 [1]; 0.006 nM): 24609
Raw Data (CCR4 [1]; 0.02 nM): 24123
Raw Data (CCR4 [1]; 0.06 nM): 27885
Raw Data (CCR4 [1]; 0.17 nM): 25757
Raw Data (CCR4 [1]; 0.51 nM): 27976
Raw Data (CCR4 [1]; 1.5 nM): 27602
Raw Data (CCR4 [1]; 4.6 nM): 26096
Raw Data (CCR4 [1]; 13.9 nM): 22941
Raw Data (CCR4 [1]; 41.7 nM): 22581
Raw Data (CCR4 [1]; 125 nM): 22195
Raw Data (CCR4 [1]; 375 nM): 19528
Raw Data (CCR4 [1]; high concentration, 0.001 uM): 9494
Raw Data (CCR4 [1]; high concentration, 0.003 uM): 10549
Raw Data (CCR4 [1]; high concentration, 0.008 uM): 10183
Raw Data (CCR4 [1]; high concentration, 0.023 uM): 11338
Raw Data (CCR4 [1]; high concentration, 0.1 uM): 11394
Raw Data (CCR4 [1]; high concentration, 0.2 uM): 12202
Raw Data (CCR4 [1]; high concentration, 0.6 uM): 11009
Raw Data (CCR4 [1]; high concentration, 1.9 uM): 11006
Raw Data (CCR4 [1]; high concentration, 5.6 uM): 10444
Raw Data (CCR4 [1]; high concentration, 16.7 uM): 10968
Raw Data (CCR4 [1]; high concentration, 50 uM): 9993
Raw Data (CCR4 [2]; 1 nM CCL22, 0.001 uM): 139740
Raw Data (CCR4 [2]; 1 nM CCL22, 0.003 uM): 146107
Raw Data (CCR4 [2]; 1 nM CCL22, 0.008 uM): 158208
Raw Data (CCR4 [2]; 1 nM CCL22, 0.023 uM): 155622
Raw Data (CCR4 [2]; 1 nM CCL22, 0.1 uM): 132431
Raw Data (CCR4 [2]; 1 nM CCL22, 0.2 uM): 136037
Raw Data (CCR4 [2]; 1 nM CCL22, 0.6 uM): 141369
Raw Data (CCR4 [2]; 1 nM CCL22, 1.9 uM): 129872
Raw Data (CCR4 [2]; 1 nM CCL22, 5.6 uM): 110179
Raw Data (CCR4 [2]; 1 nM CCL22, 16.7 uM): 106271
Raw Data (CCR4 [2]; 1 nM CCL22, 50 uM): 85131
IC80 (CCR4 [2]; 10 nM CCL22): 9.29 µM
Raw Data (CCR4 [2]; 10 nM CCL22, 0.001 uM): 164482
Raw Data (CCR4 [2]; 10 nM CCL22, 0.003 uM): 157449
Raw Data (CCR4 [2]; 10 nM CCL22, 0.008 uM): 146640
Raw Data (CCR4 [2]; 10 nM CCL22, 0.023 uM): 154833
Raw Data (CCR4 [2]; 10 nM CCL22, 0.1 uM): 154951
Raw Data (CCR4 [2]; 10 nM CCL22, 0.2 uM): 151383
Raw Data (CCR4 [2]; 10 nM CCL22, 0.6 uM): 163219
Raw Data (CCR4 [2]; 10 nM CCL22, 1.9 uM): 153353
Raw Data (CCR4 [2]; 10 nM CCL22, 5.6 uM): 145586
Raw Data (CCR4 [2]; 10 nM CCL22, 16.7 uM): 127180
Raw Data (CCR4 [2]; 10 nM CCL22, 50 uM): 119853
Sequence: ACLNGCRNTNSQCA [24-11-00-N001, bicyclic peptide ligand, TATA scaffold, from CCR4 cell-based selection]

Raw Data (CCR4 [1]; 0.006 nM): 31416
Raw Data (CCR4 [1]; 0.02 nM): 30201
Raw Data (CCR4 [1]; 0.06 nM): 30311
Raw Data (CCR4 [1]; 0.17 nM): 27668
Raw Data (CCR4 [1]; 0.51 nM): 34202
Raw Data (CCR4 [1]; 1.5 nM): 31584
Raw Data (CCR4 [1]; 4.6 nM): 28872
Raw Data (CCR4 [1]; 13.9 nM): 27830
Raw Data (CCR4 [1]; 41.7 nM): 26640
Raw Data (CCR4 [1]; 125 nM): 25288
Raw Data (CCR4 [1]; 375 nM): 22486
Raw Data (CCR4 [1]; high concentration, 0.001 uM): 10679
Raw Data (CCR4 [1]; high concentration, 0.003 uM): 11299
Raw Data (CCR4 [1]; high concentration, 0.008 uM): 11106
Raw Data (CCR4 [1]; high concentration, 0.023 uM): 12540
Raw Data (CCR4 [1]; high concentration, 0.1 uM): 13063
Raw Data (CCR4 [1]; high concentration, 0.2 uM): 13783
Raw Data (CCR4 [1]; high concentration, 0.6 uM): 13041
Raw Data (CCR4 [1]; high concentration, 1.9 uM): 13661
Raw Data (CCR4 [1]; high concentration, 5.6 uM): 12922
Raw Data (CCR4 [1]; high concentration, 16.7 uM): 12407
Raw Data (CCR4 [1]; high concentration, 50 uM): 12457
Raw Data (CCR4 [2]; 1 nM CCL22, 0.001 uM): 205771
Raw Data (CCR4 [2]; 1 nM CCL22, 0.003 uM): 230925
Raw Data (CCR4 [2]; 1 nM CCL22, 0.008 uM): 216507
Raw Data (CCR4 [2]; 1 nM CCL22, 0.023 uM): 200429
Raw Data (CCR4 [2]; 1 nM CCL22, 0.1 uM): 190863
Raw Data (CCR4 [2]; 1 nM CCL22, 0.2 uM): 196279
Raw Data (CCR4 [2]; 1 nM CCL22, 0.6 uM): 195159
Raw Data (CCR4 [2]; 1 nM CCL22, 1.9 uM): 184486
Raw Data (CCR4 [2]; 1 nM CCL22, 5.6 uM): 225342
Raw Data (CCR4 [2]; 1 nM CCL22, 16.7 uM): 123432
Raw Data (CCR4 [2]; 1 nM CCL22, 50 uM): 101311
Raw Data (CCR4 [2]; 10 nM CCL22, 0.001 uM): 162386
Raw Data (CCR4 [2]; 10 nM CCL22, 0.003 uM): 192263
Raw Data (CCR4 [2]; 10 nM CCL22, 0.008 uM): 193071
Raw Data (CCR4 [2]; 10 nM CCL22, 0.023 uM): 176223
Raw Data (CCR4 [2]; 10 nM CCL22, 0.1 uM): 168443
Raw Data (CCR4 [2]; 10 nM CCL22, 0.2 uM): 197817
Raw Data (CCR4 [2]; 10 nM CCL22, 0.6 uM): 207362
Raw Data (CCR4 [2]; 10 nM CCL22, 1.9 uM): 197426
Raw Data (CCR4 [2]; 10 nM CCL22, 5.6 uM): 164381
Raw Data (CCR4 [2]; 10 nM CCL22, 16.7 uM): 163675
Raw Data (CCR4 [2]; 10 nM CCL22, 50 uM): 134429
Sequence: ACLSCARHGNQCA [24-12-00-N001, bicyclic peptide ligand, TATA scaffold, from CCR4 cell-based selection]
